Assay results: patent publication US20250243245A1 (priority 2022, published 2025)
Where “and” joins values, the source holds several entries; their conditions need not be identical. Identical values can stand only once. Like-named read-outs stand apart in the source and are kept apart here. Where a SMILES comes first, the peptide text is derived from it.

What was measured:
[1] = test system: selected genes in the PTI, ETI, and SA/JA/ET signaling; format: cell-based, apple (Red Delicious)
in vitro = conditions: human, HEK cells (HEK294 [sic])
E. amylovora = format: cell-based, Erwinia amylovora
CLas = format: cell-based, Candidatus Liberibacter asiaticus
[2] = test system: tomato and tobacco leaves; assay: Leaf infiltration toxicity on tomato and tobacco leaves; conditions: for toxicity to tomato and tobacco: 15-25 μM, even after 96 hours of leaf infiltration; for corrosion of infiltrated tomato and tobacco leaves: 24, 48, 72, and 96 hours of infiltration (FIGS. 8A-H)

CC[C@H](C)[C@H](NC(=O)[C@H](CCCCN)NC(=O)[C@H](CC(C)C)NC(=O)[C@@H](NC(=O)[C@H](CCCCN)NC(=O)[C@H](CCCCN)NC(=O)[C@@H]1CCCN1C(=O)[C@H](CC(C)C)NC(=O)[C@H](CCCCN)NC(=O)[C@@H](N)CCCCN)[C@@H](C)CC)C(=O)N[C@@H](CC(C)C)C(=O)NCC(=O)N[C@@H](CO)C(=O)NCC(=O)N[C@@H](Cc1ccc(O)cc1)C(=O)NCC(=O)N[C@@H](CO)C(=O)N1CCC[C@H]1C(=O)NCC(=O)N[C@@H](Cc1ccccc1)C(=O)N[C@@H](Cc1c[nH]c2ccccc12)C(=O)N[C@@H](CCC(N)=O)C(=O)N[C@@H](CCCNC(=N)N)C(=O)N[C@@H](CCCNC(=N)N)C(=O)N[C@H](C(=O)N[C@@H](CCCNC(=N)N)C(=O)N[C@@H](CCCNC(=N)N)C(=O)N[C@@H](Cc1c[nH]c2ccccc12)C(=O)N[C@@H](CCCNC(=N)N)C(=O)N[C@@H](CCCNC(=N)N)C(=O)O)[C@@H](C)CC [Peptide 30P-3]
expression of the selected genes [1]: lower expression of the selected genes | IC50 (E. coli BL21; BL21, 24 h): 1.45 ± 0.09 µM | cytotoxicity at 72 h, 20 µM (in vitro): < 20% | Ct, DNA, Erwinia Primer (P29T), Mean (E. amylovora; 20 μM peptide): 37.19 | Ct, DNA, Erwinia Primer (P29T), single replicate (E. amylovora; 20 μM peptide): 37.67 and 36.71 | Ct, DNA, Erwinia Primer (P29T), Mean (E. amylovora; 25 μM peptide): 36.5 | Ct, DNA, Erwinia Primer (P29T), single replicate (E. amylovora; 25 μM peptide): 37.76 and 35.24 | Ct, RNA, Erwinia Primer (P29T), Mean (E. amylovora; 25∞M peptide): 31.535 | Ct, RNA, Erwinia Primer (P29T), single replicate (E. amylovora; 25∞M peptide): 31.56 and 31.51 | Ct value, DNA, E. amylovora clearance from infected apple leaves (E. amylovora; qPCR of DNA, 25 μM peptide): 36.50 ± 0.89 | cfu, DNA, E. amylovora clearance from infected apple leaves (E. amylovora; qPCR of DNA, 25 μM peptide, value in brackets): ~10^2 cfu | Ct value, RNA, E. amylovora clearance from infected apple leaves (E. amylovora; qPCR of RNA, 25 μM peptide): 31.54 ± 0.018 | cfu, RNA, E. amylovora clearance from infected apple leaves (E. amylovora; qPCR of RNA, 25 μM peptide, value in brackets): 7.8 × 10^3 ± 0.122 cfu | Ct value, DNA, CLas clearance from infected citrus leaves (CLas): 29.08 ± 0.018 (2.3 × 10^4 ± 0.122) | Ct value, RNA, CLas clearance from infected citrus leaves (CLas): 31.80 ± 0.028 (6.8 × 10^3 ± 0.190) | Ct, DNA, HLBas (CLas primer), Mean (CLas): 27.53 and 26.725 | Ct, DNA, HLBas (CLas primer), single replicate (CLas): 27 (2×) and 28.06 and 26.45 | Ct, RNA, HLBas (CLas primer), Mean (CLas): 30.155 | Ct, RNA, HLBas (CLas primer), single replicate (CLas): 29.94 and 30.37 | toxicity to tomato and tobacco [2]: not toxic | corrosion of infiltrated tomato and tobacco leaves [2]: no corrosion beyond the infiltrated spots

CC[C@H](C)[C@H](NC(=O)[C@H](CCCNC(=N)N)NC(=O)[C@H](CCCNC(=N)N)NC(=O)[C@H](CCC(N)=O)NC(=O)[C@H](Cc1c[nH]c2ccccc12)NC(=O)[C@H](Cc1ccccc1)NC(=O)CNC(=O)[C@@H]1CCCN1C(=O)[C@H](CO)NC(=O)CNC(=O)[C@H](Cc1ccc(O)cc1)NC(=O)CNC(=O)[C@H](CO)NC(=O)[C@H](CCC(=O)O)NC(=O)[C@H](CC(C)C)NC(=O)[C@@H](NC(=O)[C@H](CCCCN)NC(=O)[C@H](CC(C)C)NC(=O)[C@@H](NC(=O)[C@H](CCCCN)NC(=O)[C@H](CCC(=O)O)NC(=O)[C@@H]1CCCN1C(=O)[C@H](CC(C)C)NC(=O)[C@H](CCCCN)NC(=O)[C@@H](N)CCCCN)[C@@H](C)CC)[C@@H](C)CC)C(=O)N[C@@H](CCCNC(=N)N)C(=O)N[C@@H](CCCNC(=N)N)C(=O)N[C@@H](Cc1c[nH]c2ccccc12)C(=O)N[C@@H](CCCNC(=N)N)C(=O)N[C@@H](CCCNC(=N)N)C(=O)O [UGK-13] (H-KKLPEKILKILESGYGSPGFWQRRIRRWRR-OH)
IC50 (ATCC25922): 1.4 ± 0.3 µM | IC50 (E. coli BL21; BL21): 1.2 ± 0.1 µM | IC50 (E. coli BL21; BL21, 24 h): 1.24 ± 0.02 µM | cytotoxicity at 72 h, 20 µM (in vitro): < 20% | toxicity to tomato and tobacco [2]: not toxic | corrosion of infiltrated tomato and tobacco leaves [2]: no corrosion beyond the infiltrated spots

CC[C@H](C)[C@H](NC(=O)[C@H](CCCNC(=N)N)NC(=O)[C@H](CCCNC(=N)N)NC(=O)[C@H](CCC(N)=O)NC(=O)[C@H](Cc1c[nH]c2ccccc12)NC(=O)[C@H](Cc1ccccc1)NC(=O)CNC(=O)[C@@H]1CCCN1C(=O)[C@H](CO)NC(=O)CNC(=O)[C@H](CCCCN)NC(=O)[C@H](CC(C)C)NC(=O)[C@H](CO)NC(=O)[C@H](CCC(=O)O)NC(=O)[C@H](CC(C)C)NC(=O)[C@@H](NC(=O)[C@H](CCCCN)NC(=O)[C@H](CC(C)C)NC(=O)[C@@H](NC(=O)[C@H](CCCCN)NC(=O)[C@H](CCC(=O)O)NC(=O)[C@@H]1CCCN1C(=O)[C@H](CC(C)C)NC(=O)[C@H](CCCCN)NC(=O)[C@@H](N)CCCCN)[C@@H](C)CC)[C@@H](C)CC)C(=O)N[C@@H](CCCNC(=N)N)C(=O)N[C@@H](CCCNC(=N)N)C(=O)N[C@@H](Cc1c[nH]c2ccccc12)C(=O)N[C@@H](CCCNC(=N)N)C(=O)N[C@@H](CCCNC(=N)N)C(=O)O [UGK-17] (H-KKLPEKILKILESLKGSPGFWQRRIRRWRR-OH)
IC50 (E. coli BL21; BL21, 24 h): 1.36 ± 0.04 µM | cytotoxicity at 72 h, 20 µM (in vitro): < 20% | toxicity to tomato and tobacco [2]: not toxic | corrosion of infiltrated tomato and tobacco leaves [2]: no corrosion beyond the infiltrated spots
